Source: ChEMBL document CHEMBL5291721, “A preclinical secondary pharmacology resource illuminates target-adverse drug reaction associations of marketed drugs” (Nat Commun, 2023)
*1 amine or outer side, *2 acyl side, *3 side chain or, on linkers, in order; H or OH if unused. Where a SMILES comes first, the peptide text is derived from it. Bridges are numbered along the chain shown (N, C = ends). [ ]: non-standard residue; d: D form. The star is where a group is joined. hTyr(3S-OH,4S-OH,3'-OSO3H) = N[C@H](C(=O)O)[C@H](O)[C@@H](O)c1ccc(O)c(OS(=O)(=O)O)c1; Orn(4R-OH,5R-OH) = O=C([C@H](C[C@@H](O)[C@@H](O)N[*:3])N[*:1])[*:2]; Pro(3S-OH,4S-Me) = C[C@H]1CN[C@H](C(=O)O)[C@H]1O; X1 = CCCCCOc1ccc(-c2cc(-c3ccc(C(=O)*)cc3)no2)cc1; Gln(3R-OH) = NC(=O)C[C@@H](O)[C@H](N)C(=O)O; Hyp = O=C(O)[C@@H]1C[C@@H](O)CN1

Assays:
[1] = target: T1, Androgen receptor (Homo sapiens, UniProt P10275)
T1 sequence (P10275 whole entry): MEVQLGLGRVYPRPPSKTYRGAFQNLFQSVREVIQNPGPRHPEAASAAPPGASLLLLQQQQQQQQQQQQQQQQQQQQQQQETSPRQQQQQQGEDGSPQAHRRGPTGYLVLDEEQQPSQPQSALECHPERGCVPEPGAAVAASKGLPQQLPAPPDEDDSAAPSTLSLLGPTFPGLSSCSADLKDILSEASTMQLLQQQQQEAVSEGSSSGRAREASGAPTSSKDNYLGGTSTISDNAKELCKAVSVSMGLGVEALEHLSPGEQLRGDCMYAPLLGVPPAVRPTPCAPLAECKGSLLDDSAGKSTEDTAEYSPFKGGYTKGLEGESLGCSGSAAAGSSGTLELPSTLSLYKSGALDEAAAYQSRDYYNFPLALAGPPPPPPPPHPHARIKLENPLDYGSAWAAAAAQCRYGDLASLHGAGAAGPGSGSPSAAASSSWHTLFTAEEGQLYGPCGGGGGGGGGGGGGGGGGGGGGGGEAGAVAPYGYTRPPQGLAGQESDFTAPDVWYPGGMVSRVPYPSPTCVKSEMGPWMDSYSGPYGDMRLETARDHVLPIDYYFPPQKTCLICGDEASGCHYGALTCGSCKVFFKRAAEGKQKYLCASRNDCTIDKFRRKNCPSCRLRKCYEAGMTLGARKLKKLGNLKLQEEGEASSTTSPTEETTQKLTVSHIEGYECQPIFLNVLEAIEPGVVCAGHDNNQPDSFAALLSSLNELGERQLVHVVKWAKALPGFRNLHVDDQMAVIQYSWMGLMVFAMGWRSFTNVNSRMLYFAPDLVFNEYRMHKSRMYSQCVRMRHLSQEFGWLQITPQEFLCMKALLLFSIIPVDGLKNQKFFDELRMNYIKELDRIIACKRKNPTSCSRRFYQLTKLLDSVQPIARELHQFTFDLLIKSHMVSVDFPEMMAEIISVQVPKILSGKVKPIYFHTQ

[2] = target: Sodium-dependent noradrenaline transporter (Homo sapiens, UniProt P23975)
[3] = target: T2, 5-hydroxytryptamine receptor 3A (Homo sapiens, UniProt P46098); type: functional
T2 sequence (P46098 whole entry): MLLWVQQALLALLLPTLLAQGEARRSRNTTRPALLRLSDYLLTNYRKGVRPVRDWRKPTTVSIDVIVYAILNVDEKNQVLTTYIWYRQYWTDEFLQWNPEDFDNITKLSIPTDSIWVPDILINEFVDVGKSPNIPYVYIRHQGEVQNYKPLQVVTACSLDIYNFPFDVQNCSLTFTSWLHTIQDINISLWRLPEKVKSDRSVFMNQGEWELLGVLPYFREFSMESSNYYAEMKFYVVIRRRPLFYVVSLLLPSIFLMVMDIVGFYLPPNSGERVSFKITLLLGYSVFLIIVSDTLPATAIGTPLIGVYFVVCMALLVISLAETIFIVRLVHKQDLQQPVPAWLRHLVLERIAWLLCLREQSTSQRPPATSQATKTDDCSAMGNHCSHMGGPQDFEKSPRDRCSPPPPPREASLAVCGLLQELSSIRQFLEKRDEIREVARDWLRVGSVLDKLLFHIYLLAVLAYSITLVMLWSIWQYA

[4] = target: Growth hormone secretagogue receptor type 1 (Homo sapiens, UniProt Q92847)
[5] = target: T3, 5-hydroxytryptamine receptor 2C (Homo sapiens, UniProt P28335)
T3 sequence (P28335 whole entry): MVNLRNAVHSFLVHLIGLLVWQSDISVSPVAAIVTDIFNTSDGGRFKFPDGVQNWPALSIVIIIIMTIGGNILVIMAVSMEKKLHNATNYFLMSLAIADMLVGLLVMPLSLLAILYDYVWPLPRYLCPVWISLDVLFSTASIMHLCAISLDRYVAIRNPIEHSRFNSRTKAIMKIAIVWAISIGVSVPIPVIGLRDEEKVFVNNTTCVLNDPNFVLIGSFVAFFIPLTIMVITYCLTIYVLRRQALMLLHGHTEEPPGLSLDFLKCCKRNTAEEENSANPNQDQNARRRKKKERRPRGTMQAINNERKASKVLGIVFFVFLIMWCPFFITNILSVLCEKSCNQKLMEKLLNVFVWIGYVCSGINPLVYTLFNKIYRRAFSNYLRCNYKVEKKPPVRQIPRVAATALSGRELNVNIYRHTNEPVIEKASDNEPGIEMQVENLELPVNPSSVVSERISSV

[6] = target: Cannabinoid receptor 1 (Homo sapiens, UniProt P21554); type: functional, cell-based
[7] = target: T4, Endothelin-1 receptor (Homo sapiens, UniProt P25101)
T4 sequence (P25101 whole entry): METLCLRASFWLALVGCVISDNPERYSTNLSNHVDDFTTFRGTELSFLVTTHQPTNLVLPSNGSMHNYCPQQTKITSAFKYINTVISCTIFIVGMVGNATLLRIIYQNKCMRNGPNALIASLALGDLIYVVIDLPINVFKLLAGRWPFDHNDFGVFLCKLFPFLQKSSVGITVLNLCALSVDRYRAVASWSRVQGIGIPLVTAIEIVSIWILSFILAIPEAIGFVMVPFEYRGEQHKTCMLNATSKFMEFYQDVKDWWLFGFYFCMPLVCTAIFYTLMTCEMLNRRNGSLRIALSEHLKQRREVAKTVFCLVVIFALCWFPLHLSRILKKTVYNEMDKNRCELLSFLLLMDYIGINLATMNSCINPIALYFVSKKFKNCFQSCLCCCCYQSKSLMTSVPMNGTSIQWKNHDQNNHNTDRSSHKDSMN
Note: assay procedure not described here.

Sequence of Cannabinoid receptor 1 (P21554 whole entry): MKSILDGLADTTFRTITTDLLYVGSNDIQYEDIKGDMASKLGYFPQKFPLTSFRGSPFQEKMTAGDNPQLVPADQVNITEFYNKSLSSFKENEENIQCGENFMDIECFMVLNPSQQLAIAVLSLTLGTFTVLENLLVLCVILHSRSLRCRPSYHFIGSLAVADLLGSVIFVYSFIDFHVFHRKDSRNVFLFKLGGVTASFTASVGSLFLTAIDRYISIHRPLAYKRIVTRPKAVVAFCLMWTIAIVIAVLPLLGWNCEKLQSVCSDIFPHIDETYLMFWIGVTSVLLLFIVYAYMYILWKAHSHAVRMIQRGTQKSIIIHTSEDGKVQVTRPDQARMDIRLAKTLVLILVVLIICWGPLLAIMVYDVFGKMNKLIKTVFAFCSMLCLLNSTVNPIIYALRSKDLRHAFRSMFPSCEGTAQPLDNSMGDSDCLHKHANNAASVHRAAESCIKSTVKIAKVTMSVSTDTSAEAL
Sequence of Sodium-dependent noradrenaline transporter (P23975 whole entry): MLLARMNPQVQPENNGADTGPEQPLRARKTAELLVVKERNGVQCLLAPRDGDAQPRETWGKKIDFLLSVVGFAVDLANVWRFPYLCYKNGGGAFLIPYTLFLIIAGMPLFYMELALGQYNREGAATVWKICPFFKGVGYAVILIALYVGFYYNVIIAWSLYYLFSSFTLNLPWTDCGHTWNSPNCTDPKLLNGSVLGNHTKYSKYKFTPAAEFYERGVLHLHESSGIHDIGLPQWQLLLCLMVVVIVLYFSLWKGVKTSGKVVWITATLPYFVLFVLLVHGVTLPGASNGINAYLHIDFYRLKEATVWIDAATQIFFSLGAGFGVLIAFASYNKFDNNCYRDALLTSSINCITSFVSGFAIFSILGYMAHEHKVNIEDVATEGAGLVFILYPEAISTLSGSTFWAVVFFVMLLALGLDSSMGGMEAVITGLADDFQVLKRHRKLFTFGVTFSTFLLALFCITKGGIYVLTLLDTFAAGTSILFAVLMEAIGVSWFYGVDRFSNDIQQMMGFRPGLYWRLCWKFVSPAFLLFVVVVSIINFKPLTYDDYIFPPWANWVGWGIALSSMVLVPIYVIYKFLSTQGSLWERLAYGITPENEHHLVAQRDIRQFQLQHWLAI
Sequence of Growth hormone secretagogue receptor type 1 (Q92847 whole entry): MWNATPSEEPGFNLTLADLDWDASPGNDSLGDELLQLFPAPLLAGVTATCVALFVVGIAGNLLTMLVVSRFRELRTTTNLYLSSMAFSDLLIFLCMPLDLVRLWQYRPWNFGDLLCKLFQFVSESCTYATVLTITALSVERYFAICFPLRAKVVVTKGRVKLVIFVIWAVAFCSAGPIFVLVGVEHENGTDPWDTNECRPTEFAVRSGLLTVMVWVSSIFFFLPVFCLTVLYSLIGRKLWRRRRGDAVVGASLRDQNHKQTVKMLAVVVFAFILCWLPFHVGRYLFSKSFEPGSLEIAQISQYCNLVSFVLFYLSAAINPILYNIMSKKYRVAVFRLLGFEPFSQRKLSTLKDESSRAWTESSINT

C=C1c2c(Cl)ccc(O)c2C(=O)C2=C(O)[C@]3(O)C(=O)C(C(N)=O)=C(O)[C@@H](N(C)C)[C@@H]3[C@@H](O)[C@H]12 [MECLOCYCLINE]
AC50 [1]: > 30 µM

NC(=O)c1nc(F)c[nH]c1=O
AC50 [1]: > 30 µM

O=C(O)COc1nn(Cc2ccccc2)c2ccccc12 [BENDAZAC]
AC50 [1]: > 30 µM

CN(C)C(=O)c1nc(CNC(=O)CN)n(-c2ccc(Cl)cc2C(=O)c2ccccc2Cl)n1 [RILMAZAFONE]
AC50 [1]: > 30 µM

COc1nccnc1NS(=O)(=O)c1ccc(N)cc1
AC50 [1]: > 30 µM

CN(C)c1cc(CNCC(C)(C)C)c(O)c2c1C[C@H]1C[C@H]3[C@H](N(C)C)C(O)=C(C(N)=O)C(=O)[C@@]3(O)C(O)=C1C2=O [OMADACYCLINE]
AC50 [2]: > 30 µM | AC50 [3]: 25 µM | AC50 [1]: > 30 µM | AC50 [4]: > 30 µM | AC50 [5]: > 30 µM | AC50 [6]: > 30 µM | AC50 [7]: > 30 µM

Cc1ccc([C@@H]2O[C@H](CO)[C@@H](O)[C@H](O)[C@H]2O)cc1Cc1ccc(-c2ccc(F)cc2)s1 [CANAGLIFLOZIN ANHYDROUS]
AC50 [1]: > 30 µM

CN(CC(=O)O)C(=N)N [CREATINE]
AC50 [1]: > 30 µM

CNC(=O)c1cc(Oc2ccc(NC(=O)Nc3ccc(Cl)c(C(F)(F)F)c3)c(F)c2)ccn1 [REGORAFENIB]
AC50 [2]: 21.9 µM | AC50 [1]: > 30 µM

CC(C)(N)C(=O)N[C@H](Cc1c[nH]c2ccccc12)C(=O)N[C@H](Cc1c[nH]c2ccccc12)NC=O [MACIMORELIN]
AC50 [1]: > 30 µM

CC(C)[N+](C)(CCOC(=O)C1c2ccccc2Oc2ccccc21)C(C)C [PROPANTHELINE]
AC50 [1]: > 30 µM

Cc1cc2c(OCC(O)CNC(C)C)cccc2[nH]1 (configuration not stated) [MEPINDOLOL]
AC50 [1]: > 30 µM

N[C@@H](CSSC[C@H](N)C(=O)O)C(=O)O [CYSTINE]
AC50 [1]: > 30 µM

COc1ccc(Cc2nccc3cc(OC)c(OC)cc23)cc1OC [PAPAVERINE]
AC50 [2]: > 30 µM | AC50 [3]: > 30 µM | AC50 [4]: > 30 µM | AC50 [5]: > 30 µM | AC50 [6]: > 30 µM | AC50 [7]: > 30 µM

CC(C)COc1ccc(CNC(=O)N(Cc2ccc(F)cc2)C2CCN(C)CC2)cc1 [PIMAVANSERIN]
AC50 [1]: > 30 µM

CNC[C@H](O)c1cccc(O)c1 [PHENYLEPHRINE]
AC50 [2]: > 10 µM | AC50 [3]: > 10 µM | AC50 [4]: > 30 µM | AC50 [5]: > 30 µM | AC50 [6]: > 30 µM | AC50 [7]: > 30 µM

O=C(Nc1c(Cl)cncc1Cl)c1ccc(OC(F)F)c(OCC2CC2)c1 [ROFLUMILAST]
AC50 [2]: > 30 µM | AC50 [3]: > 30 µM | AC50 [4]: > 30 µM | AC50 [5]: > 30 µM | AC50 [6]: > 30 µM | AC50 [7]: > 30 µM

CCCCCOc1ccc(-c2cc(-c3ccc(C(=O)N[C@H]4C[C@@H](O)[C@@H](O)NC(=O)[C@@H]5[C@@H](O)[C@@H](C)CN5C(=O)[C@H]([C@H](O)CC(N)=O)NC(=O)[C@H]([C@H](O)[C@@H](O)c5ccc(O)c(OS(=O)(=O)O)c5)NC(=O)[C@@H]5C[C@@H](O)CN5C(=O)[C@H]([C@@H](C)O)NC4=O)cc3)no2)cc1 [MICAFUNGIN] (X1-[Orn(4R-OH,5R-OH)]T[Hyp][hTyr(3S-OH,4S-OH,3'-OSO3H)][Gln(3R-OH)][Pro(3S-OH,4S-Me)]; lactam 1-C)
AC50 [1]: > 30 µM

C#Cc1cccc(Nc2ncnc3cc(OCCOC)c(OCCOC)cc23)c1 [ERLOTINIB]
AC50 [2]: > 30 µM | AC50 [3]: > 30 µM | AC50 [4]: > 30 µM | AC50 [5]: > 30 µM | AC50 [6]: > 10 µM | AC50 [7]: > 30 µM

CC1(C)O[C@@H]2C[C@H]3[C@@H]4C[C@H](F)C5=CC(=O)C=C[C@]5(C)[C@H]4[C@@H](O)C[C@]3(C)[C@]2(C(=O)CO)O1 [FLUNISOLIDE]
AC50 [2]: > 30 µM | AC50 [3]: > 30 µM | AC50 [4]: > 30 µM | AC50 [5]: > 30 µM | AC50 [6]: > 30 µM | AC50 [7]: > 30 µM

CN(C)CCCN1C(=O)c2cc([N+](=O)[O-])ccc2Oc2ccccc21
AC50 [1]: > 30 µM

C[C@H]1Oc2cc(cnc2N)-c2c(nn(C)c2C#N)CN(C)C(=O)c2ccc(F)cc21 [LORLATINIB]
AC50 [2]: > 30 µM | AC50 [3]: > 30 µM | AC50 [4]: > 30 µM | AC50 [5]: > 30 µM | AC50 [6]: > 30 µM | AC50 [7]: > 30 µM

CCOc1ccc2ccccc2c1C(=O)N[C@@H]1C(=O)N2[C@@H]1SC(C)(C)[C@@H]2C(=O)O [NAFCILLIN]
AC50 [1]: > 30 µM

CCCCNc1ccc(C(=O)OCCN(C)C)cc1 [TETRACAINE]
AC50 [2]: > 10 µM | AC50 [3]: > 10 µM | AC50 [4]: > 30 µM | AC50 [5]: > 10 µM | AC50 [6]: > 30 µM | AC50 [7]: > 30 µM

CCCCCCCCNC(C)C(O)c1ccc(SC(C)C)cc1 (configuration not stated) [SULOCTIDIL]
AC50 [1]: > 30 µM
